Measured values published in patent publication US20070060548A1, “Modulation of Epac, phospholipase Cepsilon, and phospholipase D to treat pain” (The Regents of the University of California, priority 2005, published 2007).
Where “and” joins values, the source holds several entries; their conditions need not be identical. Identical values can stand only once. Entries after “also recorded” stand apart in the source; their conditions may differ. Like-named read-outs stand apart in the source and are kept apart here.

Assays:
[1] = test system: PKCε translocation in cultured DRG neurons; experiment: PKCε translocation to the plasma membrane in cultured DRG neurons (immunocytochemistry, 50 cells per culture counted); assay type: cell-based, rat; conditions: for PKCε translocating cells after inhibitor pretreatment and CPTOMe stimulation: 15 min pretreatment (U73122/U73343 10 μM, 1-/2-butanol 50 mM), then CPTOMe 10 μM 90 s
Experimental: Cultures of dissociated dorsal root ganglia were prepared from male Sprague-Dawley rats (200-300 g, Charles River, Hollister, Calif., USA), adapting a previously described protocol (Khasar et al., 1999b). Rats were anesthetized with an overdose of Nembutal (50 mg per animal, s.c.). L1-L6 DRGs were removed, desheathed, pooled, incubated with collagenase (final concentration (f.c.) 0.125%, 1 h, 37° C.) followed by a trypsin digest (f.c. 0.25%, 7 min, 37° C.). Cells were separated by trituration with a fire polished Pasteur pipette. Axon stumps and dead cells were removed by straining (40 μm mesh), followed by centrifugation (3 min, 500 g). Cells were resuspended in 12 ml Neurobasal A/B27-media and plated 0.5 ml (=0.5 DRG equivalents) per culture onto polyornithine/laminin precoated glass cover slips (12 mm diameter) and incubated over night in 24-well plates at 37° C. in 5% CO2. Variability between batches of NeurobasalA media and its B27 supplement resulting in varying translocation of PKCε after stimulation was counteracted by the addition of up to […] ethanol (according to technical support of Invitrogen, less than 2.5% of the ethanol concentration already in the medium).
After a 15-20 h incubation, to allow cells to adhere to coverslips, the cells were stimulated. To ensure homogeneous dispersion of the stimulants, 250 μl of the 500 μl medium was removed, mixed thoroughly with the respective activator/inhibitor and added back to the same culture. […] Activators were added for the indicated time in concentrations based on literature reports. For all agonists time courses were established (some data not shown). Negative controls (unstimulated cells) were treated alike only without the addition of any pharmaceutical reagent. While the physiological stimulus epinephrine was used for the in vivo experiments, the β-AR agonist isoproterenol was used in vitro for identification of the β-AR subtype. After treatment the cells were washed once with phosphate buffered saline (PBS) and fixed with para-formaldehyde (PFA) (4%, 10 min, room temperature (RT)).
PFA-fixed cells were permeabilized with 0.1% Triton X-100 (10 min, RT), followed by three washes with 0.1% bovine serum albumin (BSA)/PBS (5 min, RT). After blockage of unspecific binding sites (5% BSA/10% normal goat serum/PBS, 1 h, RT) the cultures were probed with the respective primary antibody in 1% BSA/PBS (over night, 4° C.), washed three times (1% BSA/PBS, 5 min, RT) and incubated with the secondary fluorophore-coupled antiserum (final concentration (f.c.) 1:200, 1 h, RT). After three final washes (PBS, 5 min, RT), the cultures were mounted with Vectashield onto microscope slides and sealed with nail polish.
Cells were evaluated with a Nikon Microphot FXA microscope, using a 50× oil objective. 50 randomly selected cells per culture were evaluated. Data are plotted as mean percentage of translocating cells per evaluated culture±standard error of means (SEM) based on the number of evaluated cultures. All counting was done in blind fashion by the same observer. All treatments have been repeated with DRG-neurons from different rats, on at least 2 separate days. Confocal images were taken with a 100× oil immersion objective using a Zeiss Axiovert 100 microscope (Carl Zeiss Inc.) attached to a MRC 1000 confocal microscope (Bio-Rad). Epifluorescent images were taken with a 63× oil immersion objective using a Zeiss Axiovert 100 microscope.

Sprague-Dawley rats = experiment: Mechanical nociceptive threshold, Randall-Selitto paw pressure test after intradermal injection; assay type: in vivo, rat; conditions: for change of baseline mechanical sensitivity (paw-withdrawal threshold): inhibitor alone, without stimulation (U73122/U73343 2.5 μl 1 μg/μl, 1-/2-butanol 2.5 μl); for CPTOMe-induced hyperalgesia after inhibitor preinjection: inhibitor preinjected 30 min before CPTOMe, positive = hyperalgesia; for reduction of paw-withdrawal threshold: agent alone, intradermal (epinephrine 0.1 μg, CPTOMe 6.3 μg in 2.5 μl), measured 30 min after injection; for effect on epinephrine-induced mechanical hyperalgesia: preinjection 30 min before epinephrine (also stated for CPTOMe)
Experimental: Behavioral experiments were performed on male Sprague-Dawley rats (200-300 g, Charles River, Hollister, Calif., USA). Animals were housed in a controlled environment in the Animal Care Facility of the University of California, San Francisco, under a 12 h light/dark cycle. Food and water were available ad libitum. Care and use of animals conformed to NIH guidelines. The UCSF Committee on Animal Research approved experimental protocols. All efforts were made to minimize the number of animals used. The nociceptive flexion reflex was quantified using the Randall-Selitto paw pressure device (Analgesymeter®, Stoetling), which applies a linearly increasing mechanical force to the dorsum of the rat's hind paw. The nociceptive mechanical threshold was defined as the force in grams at which the rat withdrew its paw. The protocols for this procedure have been previously described (Taiwo and Levine, 1989; Dina et al., 2003). Baseline paw-withdrawal threshold was defined as the mean of six readings before test agents were injected. Each paw was treated as an independent measure and each experiment was performed on a separate group of rats. Each group of rats was treated with only one agonist and/or antagonist injected peripherally by the intradermal route. Measurement of nociceptive threshold was taken 30 min after the administration of the hyperalgesic mediator. All behavioral testing was done between 10.00 and 16.00 h. The blocking agents were injected as described previously ([…] et al., 1995; […] et al., 1999a). […] […] et al., 1999a).

[2] = 15 min pretreatment (ICI 118,551 50 μM, D-609 30 μM, U73122/U73343 10 μM, 1-/2-butanol 50 mM, BIM 100 nM), then isoproterenol 1 μM 30 s
[3] = activator alone, 30 s stimulation (isoproterenol 1 μM, cholera toxin 1 μg/ml, forskolin 5 μM, CPTOMe 10 μM), mean±SEM

Row | Compound | PKCε translocating cells after inhibitor pretreatment and isoproterenol stimulation [1, 2] | PKCε translocating cells after inhibitor pretreatment and CPTOMe stimulation [1] [%] | change of baseline mechanical sensitivity (paw-withdrawal threshold) (Sprague-Dawley rats) | CPTOMe-induced hyperalgesia after inhibitor preinjection (Sprague-Dawley rats) | also measured
1 | cholera toxin | – | – | – | – | PKCε translocating cells [1]: 15.2±3.0% and 24.0±1.9%; time of maximal PKCε translocation [1]: 90 s
2 | S=C([S-])OC1CC2CC1C1CCCC21.[K+] [D-609] | 20.8±2.9% | – | – | – | –
3 | COc1ccc2c(c1)CC[C@@H]1[C@@H]2CC[C@]2(C)[C@@H](NCCCCCCN3C(=O)CCC3=O)CC[C@@H]12 [U73343] | 15.3±1.9% | 23.7±3.6 | 2.8%±1.9% | 30.9%±1.9% | –
4 | CO[C@@H]1[C@@H]2OP(=O)(O)OC[C@H]2O[C@H]1n1c(Sc2ccc(Cl)cc2)nc2c(N)ncnc21 [CPTOMe, 8-CPT-2′-O-Me-cAMP] | – | – | – | – | PKCε translocating cells [1]: 20.3±2.6% and 23.5±3.7%; time of maximal PKCε translocation ([1]; activator alone, time course): 90 s; CPTOMe-induced hyperalgesia (Sprague-Dawley rats; CPTOMe alone, comparator of the inhibitor experiment): 31.7%±0.8%; reduction of paw-withdrawal threshold (Sprague-Dawley rats): 34.6±1.6%
5 | Cc1ccc(OCC(O)C(C)NC(C)C)c2c1CCC2 (stereo not shown) [ICI 118,551] | 3.0%±1.1% | – | – | – | –
6 | CCC(C)O (stereo not shown) [2-butanol] | 16.0±2.4% | 21.8±2.7 | −8%±1.7% | 33.4±1.7% | –
7 | CCCCO [1-butanol] | 5.5±1.1% | 8.7±1.5 | −0.0%±1.8% | −0.5%±1.8% | effect on epinephrine-induced mechanical hyperalgesia (Sprague-Dawley rats): inhibits completely
8 | CN(C)CCCn1cc(C2=C(c3c[nH]c4ccccc34)C(=O)NC2=O)c2ccccc21 [BIM, bisindolylmaleimide I] | – | – | – | – | PKCε translocating cells after inhibitor pretreatment and isoproterenol stimulation [1]: 19.8±1.3%
9 | C=C[C@@]1(C)CC(=O)[C@]2(O)[C@@]3(C)[C@@H](O)CCC(C)(C)[C@@H]3[C@H](O)[C@H](OC(C)=O)[C@@]2(C)O1 [forskolin] | – | – | – | – | PKCε translocating cells [1, 3]: 22.3±4.2%
10 | COc1ccc2c(c1)CC[C@@H]1[C@@H]2CC[C@]2(C)[C@@H](NCCCCCCN3C(=O)C=CC3=O)CC[C@@H]12 [U73122] | 0.3±0.3% | 2.0±0.9 | −4.4%±1.3% | −2.5%±2.0% | effect on epinephrine-induced mechanical hyperalgesia (Sprague-Dawley rats): completely blocked
11 | CC(C)NC[C@H](O)c1ccc(O)c(O)c1 [isoproterenol, (−)-isoproterenol] | – | – | – | – | PKCε translocating cells [1, 3]: 21.3%±2.8% and 19.0±3.0%; time of maximal PKCε translocation ([1]; activator alone, time course): about 30 s
12 | CNC[C@H](O)c1ccc(O)c(O)c1 [epinephrine] | – | – | – | – | reduction of paw-withdrawal threshold (Sprague-Dawley rats): 37.7±1.9%
13 | Cc1ncc2ccccc2c1C#N [CMIQ, 4-cyano-3-methylisoquinoline] | – | – | – | – | effect on isoproterenol-induced PKCε translocation ([1]; 15 min preincubation, up to 1000-fold IC50 (0.03-30 μM), then isoproterenol 1 μM 30 s): still translocated to the plasma membrane, as in control conditions; effect on mechanical paw-withdrawal threshold (Sprague-Dawley rats; CMIQ alone 2.5 μg/2.5 μl intradermally): did not change; effect on PKA catalytic subunit-induced hyperalgesia (Sprague-Dawley rats; CMIQ preinjected 15 min before PKAcs): completely abrogated; also recorded: completely blocked
